Reference: the supplement of paper PMC10307832

How the values were obtained:
Test in all cases: relative viability (nuclei count vs DMSO), 5 days (fraction); higher = more cells survive
Sulindac + Pictilisib = compound: CC1=C(CC(=O)O)c2cc(F)ccc2/C1=C\c1ccc([S+](C)[O-])cc1 [Sulindac] + CS(=O)(=O)N1CCN(Cc2cc3nc(-c4cccc5[nH]ncc45)nc(N4CCOCC4)c3s2)CC1 [Pictilisib] (partner 1 µM)
Procedure, shortened: (§1)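 Lung cancer cell lines were pin-tool dosed in 1536-well plates on the day after seeding, with either a lone drug or a fixed anchor-drug dose plus five library-drug doses (not always all listed) in √10 steps. Nuclei were counted on 4× images after 5 days. Relative viability is the ratio of treated-well to vehicle-well nuclei counts, with each value a median of duplicate plates.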

Sulindac + Decitabine = compound: CC1=C(CC(=O)O)c2cc(F)ccc2/C1=C\c1ccc([S+](C)[O-])cc1 [Sulindac] + Nc1ncn([C@H]2C[C@H](O)[C@@H](CO)O2)c(=O)n1 [Decitabine] (partner 2 µM)
Procedure, shortened: as §1

[1] = compound: CN[C@@H]1C[C@H]2O[C@@](C)([C@@H]1OC)n1c3ccccc3c3c4c(c5c6ccccc6n2c5c31)C(=O)NC4 [Staurosporine] + CS(=O)(=O)N1CCN(Cc2cc3nc(-c4cccc5[nH]ncc45)nc(N4CCOCC4)c3s2)CC1 [Pictilisib] (partner 1 µM)
Procedure, shortened: as §1

[2] = compound: O=c1[nH]cc(F)c(=O)[nH]1 [5-Fluorouracil] + CS(=O)(=O)N1CCN(Cc2cc3nc(-c4cccc5[nH]ncc45)nc(N4CCOCC4)c3s2)CC1 [Pictilisib] (partner 1 µM)
Procedure, shortened: as §1

Cell Line	relative viability (Sulindac + Pictilisib; first compound 0.08 µM)	relative viability (Sulindac + Pictilisib; first compound 0.253 µM)	relative viability (Sulindac + Pictilisib; first compound 0.8 µM)	relative viability (Sulindac + Pictilisib; first compound 2.53 µM)	relative viability (Sulindac + Pictilisib; first compound 8 µM)	relative viability (Sulindac + Decitabine; first compound 0.08 µM)	relative viability (Sulindac + Decitabine; first compound 0.253 µM)	relative viability (Sulindac + Decitabine; first compound 0.8 µM)	relative viability (Sulindac + Decitabine; first compound 2.53 µM)	relative viability (Sulindac + Decitabine; first compound 8 µM)	relative viability ([1]; first compound 0.005 µM)	relative viability ([1]; first compound 0.01581 µM)	relative viability ([1]; first compound 0.05 µM)	relative viability ([1]; first compound 0.1581 µM)	relative viability ([1]; first compound 0.5 µM)	relative viability ([2]; first compound 0.02 µM)	relative viability ([2]; first compound 0.2 µM)	relative viability ([2]; first compound 0.6325 µM)	relative viability ([2]; first compound 2 µM)
NCI-H1993	0.827	0.787	0.769	0.732	0.927	0.558	0.298	0.454	0.61	0.627	0.869	0.646	0.66	0.526	0.565	0.793	0.657	0.661	0.779
A549	0.573	0.528	0.327	0.467	0.857	0.262	0.247		0.29	0.232	0.259	0.0929	0.0679	0.061	0.0434	0.578	0.474	0.21	0.12
NCI-H520	0.336	0.3	0.235	0.251	0.366	0.516	0.568	0.467	0.431	0.505	0.484	0.206	0.39	0.178	0.159	0.316	0.272	0.271	0.232
LCLC-103H	0.757	0.612	0.545	0.642	0.748	0.748	0.787	0.738	0.661	0.729	0.495	0.211	0.274	0.193	0.158	0.61	0.598	0.536	0.447
HCC-78	0.309	0.269	0.207	0.183	0.246	0.652	0.672	0.597	0.653	0.648	0.212	0.175	0.178	0.223	0.206	0.236	0.182	0.181	
NCI-H1975	0.301	0.28		0.282	0.286	0.594	0.413	0.352	0.394	0.36	0.209	0.14	0.156	0.103	0.11	0.309	0.308	0.262	0.217
